Test results published in US20230295149A1, “MONOBACTAM COMPOUNDS, THEIR PREPARATION AND USE AS ANTIBACTERIAL AGENTS” (NINGXIA ACADEMY OF AGRICULTURE AND FORESTRY SCIENCES, priority 2020, published 2023).

Experiments:
Experiment in all cases: MIC determination, broth microdilution
Assay type in all cases: cell-based
[1] = tested on: E. coli clinical isolate; conditions: Escherichia coli, 37° C., 18-24 hours, read-out: Strain 1 MIC
Experimental: (§1) Compounds of this invention were tested for antimicrobial activity by determining minimum inhibitory concentrations (MICs, in μg/mL) using the broth microdilution method according to the guidelines of the Clinical Laboratories and Standards Institute (“Methods for Dilution Antimicrobial Susceptibility Tests for Bacteria that Grow Aerobically”, Approved standard, 7th ed., Clinical and Laboratory Standards Institute (CLSI) Document M7-A8, Wayne, Pa., USA, 2009.). Test compounds were dissolved in DMSO. The compounds were then diluted in microbial growth medium (Mueller Hinton Broth II, cation adjusted) resulting in a final concentration range of 0.063-64 μg/mL in serial two-fold dilution. In all cases the final DMSO concentration was less than 0.5%. Bacteria were added to 96-well microtitre plates containing the two-fold dilutions of the compounds; the final cell density was approximately 5×10^5 colony forming units/mL (CFU/mL). Plates were incubated at 37° C. for 18-24 hours and read visually. The MIC, i.e. the lowest concentration of the test compound that inhibited visible growth of the bacteria, was recorded. The same assay conditions were used when the compounds of this invention were tested in combination with—lactamase inhibitors. While the compounds of this invention were serially diluted as described above, a constant concentration of the inhibitor of 4 mg/L was used. Bacterial strains that were used to evaluate the antimicrobial activity using the MIC determination included but were not limited to E. coli clinical isolate, E. coli 8739, K. pneumoniae clinical isolate, K. pneumoniae 700603, E. cloacae clinical isolate, E. cloacae 700323, A. baumannii clinical isolate, A. baumannii 19606, P. aeruginosa clinical isolate, P. aeruginosa 9027.

[2] = tested on: E. cloacae 700323; conditions: Enterobacter cloacae, 37° C., 18-24 hours, read-out: Strain 6 MIC
Experimental: as §1

[3] = tested on: P. aeruginosa clinical isolate; conditions: Pseudomonas aeruginosa, 37° C., 18-24 hours, read-out: Strain 9 MIC
Experimental: as §1

[4] = tested on: K. pneumoniae clinical isolate; conditions: Klebsiella pneumoniae, 37° C., 18-24 hours, read-out: Strain 3 MIC
Experimental: as §1

[5] = tested on: E. coli 8739; conditions: Escherichia coli, 37° C., 18-24 hours, read-out: Strain 2 MIC
Experimental: as §1

[6] = tested on: P. aeruginosa 9027; conditions: Pseudomonas aeruginosa, 37° C., 18-24 hours, read-out: Strain 10 MIC
Experimental: as §1

[7] = tested on: K. pneumoniae 700603; conditions: Klebsiella pneumoniae, 37° C., 18-24 hours, read-out: Strain 4 MIC
Experimental: as §1

[8] = tested on: A. baumannii clinical isolate; conditions: Acinetobacter baumannii, 37° C., 18-24 hours, read-out: Strain 7 MIC
Experimental: as §1

[9] = tested on: A. baumannii 19606; conditions: Acinetobacter baumannii, 37° C., 18-24 hours, read-out: Strain8 MIC
Experimental: as §1

[10] = tested on: E. cloacae clinical isolate; conditions: Enterobacter cloacae, 37° C., 18-24 hours, read-out: Strain5 MIC
Experimental: as §1

Row | SMILES | MIC [1] [µg/mL] | MIC [2] [µg/mL] | MIC [3] [µg/mL] | MIC [4] [µg/mL] | MIC [5] [µg/mL] | MIC [6] [µg/mL] | MIC [7] [µg/mL] | MIC [8] [µg/mL] | MIC [9] [µg/mL] | MIC [10] [µg/mL]
1 | CC1(C)[C@H](NC(=O)/C(=N\O[C@@H](COc2ccc(C(=N)N[C@H]3CCCNC3)cc2)C(=O)O)c2nc(N)sc2Cl)C(=O)N1OS(=O)(=O)O [Example 11, (S)-2-((((Z)-1-(2-Amino-5-chlorothiazol-4-yl)-2-(((S)-2,2-dimethyl-4-oxo-1-(sulfooxy)azetidin-3-yl)amino)-2-oxoethylidene)amino)oxy)-3-(4-(N—((S)-piperidin-3-yl)carbamimidoyl)phenoxy)propanoic acid] | 0.5 | 64 | 4 | 32 | 0.5 | 2 | 64 | 16 | 32 | 32
2 | CC1(C)[C@H](NC(=O)/C(=N\O[C@@H](COc2ccc(C(=N)N[C@@H]3CCNC3)cc2)C(=O)O)c2nsc(N)n2)C(=O)N1OS(=O)(=O)O [Example 12, (S)-2-((((Z)-1-(5-Amino-1,2,4-thiadiazol-3-yl)-2-(((S)-2,2-dimethyl-4-oxo-1-(sulfooxy)azetidin-3-yl)amino)-2-oxoethylidene)amino)oxy)-3-(4-(N—((R)-pyrrolidin-3-yl)carbamimidoyl)phenoxy)propanoic acid] | 8 | 8 | 2 | 4 | 1 | 2 | 8 | 16 | 8 | 8
